Patent US4347323A, “Glycerol kinase from Streptomyces canus” (Toyo Jozo Kabushiki Kaisha, priority 1979, dated 1982)
Entries after “also recorded” stand apart in the source; their conditions may differ. Read-outs that look alike come from different tables or passages of the source.

Assays:
[1] = tested on: glycerol kinase (GK) produced by Streptomyces canus A 2408; test: Km value of GK for its substrates; assay type: biochemical
Procedure: The above mixture (1 ml) is preincubated at 37° C. for 5 minutes and GK solution (50 μl) [diluted with GL-buffer (10 mM phosphate buffer containing 10 mM glycerol, pH 7.5)] is added thereto and incubated at 37° C. for 10 minutes.
One unit of GK is defined as liberating […] of glycero-3-phosphate per minute.
Enzyme activity is calculated by the following equation: [formula]

[2] = tested on: glycerol kinase (GK) produced by Streptomyces canus A 2408; test: Substrate specificity for glycerol, dihydroxyacetone phosphate and D-glyceraldehyde (ADP assay); assay type: biochemical; details: for Relative activity: substrate 0.1 M, 0.05 ml, 37° C. for 10 minutes, ADP assayed at 550 nm
Procedure: (i) specificity for glycerol, dihydroxyacetone phosphate and D-glyceraldehyde: […]
The reaction mixture (0.95 ml) is preincubated at 37° C. for 3 minutes, and the enzyme solution (dissolved in 10 mM phosphate buffer, pH 7.5, 0.05 ml) is added thereto. Then the mixture is incubated at 37° C. for 10 minutes. The reaction is stopped by boiling for 3 minutes. After cooling to 37° C., the amount of ADP is assayed. ADP is assayed by adding an ADP-assay solution (2.0 ml) comprising the following mixture: […]
The reaction mixture is incubated at 37° C. for 15 minutes. Color formation is measured at 550 nm to calculate the substrate specificity.

[3] = tested on: glycerol kinase (GK) produced by Streptomyces canus A 2408; test: Specific activity for nucleotide; assay type: biochemical; details: for Relative activity (%): 10 mM ATP replaced by the nucleotide, formed glycero-3-phosphate measured
Procedure: (ii) specific activity for nucleotide:
In assay method (i) hereinabove, 10 mM ATP is replaced by CTP, ITP, GTP and UTP and measures the formed glycero-3-phosphate.

[4] = tested on: glycerol kinase (GK) produced by Streptomyces canus A 2408; test: Effect of metal ions and p-chloromercuribenzoate (PCMB); assay type: biochemical
Text: Effect of metal ions and p-chloromercuribenzoate (PCMB)

[5] = tested on: Escherichia coli GK (E.Co-GK); details: cited from earlier work
[6] = tested on: pigeon heart GK (Pig.-GK); details: cited from earlier work

Compound: O=C(CO)CO [dihydroxyacetone]
- Km [1]: 660 µM
- Relative activity [2]: 74%

Compound: Nc1nc2c(ncn2[C@@H]2O[C@H](COP(=O)(O)OP(=O)(O)OP(=O)(O)O)[C@@H](O)[C@H]2O)c(=O)[nH]1 [GTP]
- Relative activity (%) [3]: 19%

Compound: O=c1[nH]cnc2c1ncn2[C@@H]1O[C@H](COP(=O)(O)OP(=O)(O)OP(=O)(O)O)[C@@H](O)[C@H]1O [ITP]
- Relative activity (%) [3]: 47%

Compound: [Ca+2].[Cl-].[Cl-] [CaCl2]
- Effect of metal ion on GK activity (in words) [4]: inhibited
- Relative Activity (%) with 1 mM Mg++ ([4]; reagent 1.0 mM): 54%
- Relative Activity (%) without Mg++ ([4]; reagent 1.0 mM): 0%

Compound: O=c1ccn([C@@H]2O[C@H](COP(=O)(O)OP(=O)(O)OP(=O)(O)O)[C@@H](O)[C@H]2O)c(=O)[nH]1 [UTP]
- Relative activity (%) [3]: 18%

Compound: Nc1ncnc2c1ncn2[C@@H]1O[C@H](COP(=O)(O)OP(=O)(O)OP(=O)(O)O)[C@@H](O)[C@H]1O [ATP]
- Km [1]: 200 µM
- nucleotide specificity (in words) [3]: especially high specificity
- Relative activity (%) [3]: 100%
- nucleotide specificity (in words) [5]: acts only for ATP

Compound: [Cl-].[Cl-].[Mg+2] [MgCl2]
- Effect of metal ion on GK activity (in words) [4]: activated
- Relative Activity (%) with 1 mM Mg++ ([4]; reagent 1.0 mM): 100%
- Relative Activity (%) without Mg++ ([4]; reagent 1.0 mM): 100%

Compound: OCC(O)CO [glycerol]
- Km [1]: 48 µM
- substrate specificity (in words) ([2]; glycerol versus dihydroxyacetone phosphate): higher specificity
- Relative activity [2]: 100%

Compound: O=C[C@H](O)CO [D-glyceraldehyde]
- Km [1]: 350 µM
- Relative activity [2]: 20%

Compound: [Cl][Mn][Cl] [MnCl2]
- Effect of metal ion on GK activity (in words) ([4]; listed as Mn++): inhibited; also recorded: strongly inhibits
- Relative Activity (%) with 1 mM Mg++ ([4]; reagent 1.0 mM): 14%
- Relative Activity (%) without Mg++ ([4]; reagent 1.0 mM): 6%
- use as divalent metal ion (in words) [5]: can be used
- use as divalent metal ion (in words) [6]: can be used

Compound: dihydroxyacetone phosphate
- activity for dihydroxyacetone phosphate as compared with glycerol [5]: nearly twice

Compound: O=C(O)c1cc[c]([Hg][Cl])cc1 [PCMB, p-chloromercuribenzoate]
- Inhibition of GK activity by PCMB (in words) ([4]; 7.5×10^-6 M of PCMB): completely inhibits
- Relative Activity (%) with 1 mM Mg++ ([4]; PCMB 5.0 × 10^-6 M): 13%
- Relative Activity (%) with 1 mM Mg++ ([4]; PCMB 7.5 × 10^-6 M): 0%

Compound: Nc1ccn([C@@H]2O[C@H](COP(=O)(O)OP(=O)(O)OP(=O)(O)O)[C@@H](O)[C@H]2O)c(=O)n1 [CTP]
- nucleotide specificity (in words) [3]: especially high specificity
- Relative activity (%) [3]: 92%
